Reference: patent US8957093B2, “N-biphenylmethylindole modulators of PPARG” (The Scripps Research Institute, priority 2011, dated 2015)

How the values were obtained:
[1] = tested on: pre-adipose cell lines; experiment: Fat cell differentiation (Oil Red O staining, adipogenic gene expression); assay type: cell-based
[2] = tested on: differentiated fat cells; experiment: cdk5-mediated phosphorylation of PPARG in differentiated fat cells; assay type: cell-based
From the text: (§1) In order to develop a suitable ligand, we optimized compounds for (i) high binding affinity for PPARG, (ii) blocking the cdk5-mediated PPARG phosphorylation and (iii) lacking classical agonism. Classical agonism is defined here, as is standard in the nuclear receptor field, as an increased level of transcription through a tandem PPAR response element luciferase reporter (PPRE::Luc).

[3] = tested on: PPARG (murine PPARg2 or full-length human PPARG, 3xPPRE-luciferase reporter); experiment: Cell-based PPRE-luciferase transactivation assay in COS-1 cells; details: compared to rosiglitazone or MRL24
[4] = tested on: RAW264.7 cells; experiment: Inflammatory cytokine production in LPS stimulated RAW264.7 cells; assay type: cell-based
[5] = tested on: ob/ob mouse; experiment: Leptin-deficient ob/ob mouse model; details: ob/ob mice
Protocol: A more severe model of obesity is the leptin-deficient ob/ob mouse. These animals are very obese and insulin-resistant, with substantial compensatory hyperinsulinemia. […] Functional analyses were performed at days 5 and 11 after the start of treatments.
Longer treatments with these drugs allowed an assessment of certain side effects.

[6] = molecular target: Rb protein (cdk5 substrate) (Homo sapiens (Human), UniProt Q00535); experiment: cdk5 phosphorylation of Rb protein in vitro (Western blot); assay type: biochemical
From the text: as §1

[7] = tested on: obese, insulin-resistant mice; experiment: Wild-type mice fed a calorie dense diet high in sugar and fat (obese, insulin-resistant)
[8] = Pharmacokinetic properties; details: in vivo
[9] = tested on: obese, insulin-resistant mice; experiment: Hyperinsulinemic-euglycemic clamp in obese mice; assay type: in vivo, mouse
From the text: The most accurate method for measuring changes in insulin sensitivity is the hyperinsulinemic-euglycemic clamp (DeFronzo et al., 1979). In this method, animals are exposed to an elevated concentration of insulin while the amount of glucose infused is adjusted in real time to maintain fixed, or clamped glycemia.

[10] = tested on: MC3T3-E1 cells; experiment: Mineralization of osteoblastic cells (Alizarin red S staining, osteoblast gene expression); assay type: cell-based, mouse
From the text: Moreover, the expression of genes involved in the differentiation of these cells was impaired (alkaline phosphatase, RANKL, type I collagen).

[11] = injected twice daily for 5 days

## Cc1c(C)n(Cc2ccc(-c3ccccc3C(=O)O)cc2)c2ccc(C(=O)N[C@@H](C)c3ccc([N+](=O)[O-])cc3)cc12 [SR1664]
[1]; Oil Red O staining
  fat cell differentiation / lipid accumulation: did not stimulate increased lipid accumulation or changes in morphology
[1]; genes linked to adipogenesis
  expression of aP2, C/EBPα and Glut4: little or no change
[2]
  blocking cdk5-mediated phosphorylation of PPARG in differentiated fat cells: effective at blocking
[3]
  transcriptional agonism on tandem PPRE::Luc reporter: essentially no transcriptional agonism at any concentration
[4]
  production of inflammatory cytokines: inhibition of production of inflammatory cytokines
[5]
  glucose tolerance test: markedly improved
[5]; after five days of treatment
  insulin levels: substantially reduced
[5]; after five days of treatment, vehicle 110±13
  fasting glucose levels: 90 ± 12 mg/dL
[5]; longer treatment
  body fat / adiposity by MRI: no decrease in the hematocrit or change in body adiposity
  hematocrit (fluid retention): no decrease
[5]; longer treatment (11 days)
  body weight: did not cause the weight gain
[6]
  effect on cdk5 phosphorylation of the Rb protein: no effect
[7]; [11]
  body weight compared to vehicle treated mice: without significant differences
  cdk5-mediated phosphorylation of PPARG at serine 273 in adipose tissue: dose-dependent decrease
  fasting insulin levels: significant reduction
  glucose levels: trend toward lowered (and normalized) glucose levels
  insulin resistance as computed by HOMA-IR: clear and dose-dependent improvement
[7]; mouse, in vivo
  expression of adiponectin and adipsin: induced
[8]
  pharmacokinetic properties: adequate
[9]; basal and clamped conditions
  plasma FFA: reduction
[9]; clamp
  glucose uptake in the adipose tissue: significantly enhanced
  suppression of endogenous hepatic glucose production (EGP): increased
  whole body glucose utilization: not increased
[9]; versus vehicle alone
  glucose infusion rate (GIR) needed to maintain euglycemia: significantly greater
[10]
  expression of osteoblast differentiation genes (alkaline phosphatase, RANKL, type I collagen): did not affect
[10]; Alizarin red S staining
  mineralization (calcification): did not affect
